Measurements reported in patent US20070092587A1, “Extract from plant of japanese parsley family and process for producing the same” (priority 2004, published 2007).

Tested on: mature adipocytes (3T3-L1 cells)
Assay: Enhancing action on glucose uptake (2-deoxyglucose uptake) into mature adipocytes
Format: cell-based
Settings: isolated compounds at final 3-30 μM; insulin 1 μg/mL positive control; compared to negative control
Procedure: The induction of differentiation into mature adipocytes was carried out by partially modifying the method of Rubin C. S. et al. 3T3-L1 cells were suspended in a 10% fetal bovine serum-containing Dulbecco's modified Eagle's medium containing 200 μM ascorbic acid so as to have a density of 4×10^3 cells/mL, and the suspension was put in each well of a 12-well microtiter plate in an amount of 2 mL per well. The cells were cultured at 37° C. for 7 days in the presence of 5% carbon dioxide gas. On the seventh day, the medium was exchanged with 2 mL of a 10% fetal bovine serum-containing Dulbecco's modified Eagle's medium containing 200 μM ascorbic acid, 0.25 μM dexamethasone, 10 μg/mL insulin and 0.5 mM 3-isobutyl-1-methylxanthine (manufactured by Nacalai Tesque, Inc., 19624-44). After 45 hours, the medium was exchanged with 2 mL of a 10% fetal bovine serum-containing Dulbecco's modified Eagle's medium containing 200 μM ascorbic acid and 5 μg/mL insulin. The medium was exchanged on after 2 days and 4 days, and the cells were cultured for 7 days, to give mature adipocytes.
As the evaluation of enhancing action on glucose uptake, and also as the evaluation of insulin-mimetic action, the amount of 2-deoxyglucose uptake into mature adipocytes stimulated with the sample ([…]) in the adipocytes was determined.
After the termination of the culture, the medium was removed, and the cells were washed twice with a 0.1% (w/v) bovine serum albumin (manufactured by Sigma, A8022)-containing Dulbecco's modified Eagle's medium. Thereafter, 1 mL of the […] ethanol solution at a final concentration of 0.1%, 0.067%, or 0.022%, […] solution at a final concentration of 0.2%, 0.067%, or 0.022%, […] ethanol solution or the dimethyl sulfoxide solution of the extract from the root portion of Angelica keiskei koidz. with the 100% ethanol so as to have a final concentration of 0.067% or 0.022%, each extract being prepared in Example 4, was put to each well. The cells were cultured overnight at 37° C. in the presence of 5% carbon dioxide gas. Here, a group without addition of the sample was set as a negative control. After the overnight culture, the cells were washed twice with a HEPES buffered saline (140 mM NaCl, 5 mM KCl, 2.5 mM MgSO4, 1 mM CaCl2, 20 mM HEPES-Na (pH 7.4)), and 0.9 mL of the […] ethanol solution at a final concentration of 0.1%, 0.067%, or 0.022%, […] solution at a final concentration of 0.2%, 0.067%, or 0.022%, […] ethanol solution or the dimethyl sulfoxide solution of the extract from the root portion of Angelica keiskei koidz. with the 100% ethanol so as to have a final concentration of 0.067% or 0.022%, was added thereto. The cells were cultured at 37° C. for 75 minutes. At the point when 45 minutes passed, there was set in a well without addition of the sample a group with addition of insulin so as to have a final concentration of 1 μg/mL as a positive control. Thereafter, 100 μL of a HEPES buffered saline containing 0.5 μCi/mL 2-deoxy-[1,2-^3H(N)]-glucose (manufactured by PerkinElmer Life Sciences Inc., NET549A) and 1 mM 2-deoxyglucose (manufactured by Nacalai Tesque, Inc., 10722-11) was added thereto, and the cells were further cultured at 37° C. for 10 minutes. […] The radioactivity was determined with a liquid scintillation counter LS6500 (manufactured by Beckmann) using 25 μl of the supernatant with Ultima Gold (manufactured by PerkinElmer Life Sciences Inc., 6013329) as a scintillation cocktail. […]

CC(C)=CCc1c(O)ccc(C(=O)/C=C/c2ccc(O)cc2)c1O [Isobavachalcone, isobavachalcone]
enhancement of 2-deoxy-[1,2-3H(N)]-glucose uptake: enhancement of 2-deoxy-[1,2-^3H(N)]-glucose uptake was found

xanthoangelol H
enhancement of 2-deoxy-[1,2-3H(N)]-glucose uptake: enhancement of 2-deoxy-[1,2-^3H(N)]-glucose uptake was found
